For data set [1], the target named is T1, MDMX (1–134) (Homo sapiens, UniProt O15151).
T1 construct: tested against MDMX (1–134); His6-GST (TEV-cleavable) (N, cleaved yes); made in house; host or cells: E. coli Rosetta 2(DE3)pLysS
T1 sequence (O15151 1-134): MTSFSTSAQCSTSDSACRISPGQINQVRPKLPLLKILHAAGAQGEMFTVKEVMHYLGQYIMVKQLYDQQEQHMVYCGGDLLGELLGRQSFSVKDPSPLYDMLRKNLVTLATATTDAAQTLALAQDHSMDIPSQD
The data set can be described thus: Fluorescence polarisation direct binding assay, MDMX. Particulars: direct FP binding; 10 nM FITC peptide in Tris buffer pH 7.6; protein serially diluted 10 μM to 9 pM; 3 h, room temperature; quadratic ligand depletion fit; n = 3. The method, then: The binding properties of the peptide were assessed using a biophysical FP assay. Specifically, a direct binding assay was conducted to calculate the Kd values of the fluorescent peptide ligands binding to the target proteins (eqn (S3), ESI ^†).[29] […] The peptides were first tested for binding with MDM2 (1–138). […] Peptide solutions were made up to a concentration of 10 nM and varying concentrations of protein (10 μM to 9 pM) were incubated with the peptide with FP measurements taken after 3 h (Fig. 4). […] The final analogue examined for its binding of MDM2 was 5FITC, the diyne negative control. […]
resuspension buffer. […]
The His6-GST -tagged proteins were then cleaved with TEV while dialyzing into 330 mM NaCl, PBS, 5 mM BME for 20 hours at 4 °C. […] Protein concentration was measured at an absorbance of 595 nm with the Bio-rad Protein Assay Kit II using bovine serum albumin as a standard. […]
Fluorescence Polarisation Binding Assay
The binding properties of the peptides were assessed using a biophysical FP assay. […] All FP measurements were performed on a microplate reader (CLARIOstar) in black 384-well microplates with 20 μL of sample solution per well. […]
was added and serially diluted from 10 μM to 9 pM. […] Plates were placed in a PerkinElmer Victor X5 plate reader with excitation measured at 531 nm and emission measured at 595 nm. […]
A general note: Polarisation of emitted light reports the rotation of a fluorescent probe.

In data set [2] the target is T2, MDM2 (1–138) (Homo sapiens, UniProt Q00987).
T2 construct: His6-GST (TEV-cleavable) (N, cleaved yes); made in house; host or cells: E. coli Rosetta 2(DE3)pLacI
T2 sequence (Q00987 1-138): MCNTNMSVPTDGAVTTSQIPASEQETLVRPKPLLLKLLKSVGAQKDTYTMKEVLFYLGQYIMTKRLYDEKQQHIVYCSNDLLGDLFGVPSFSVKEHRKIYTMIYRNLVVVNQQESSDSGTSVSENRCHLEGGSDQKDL
The data set is described as follows: Fluorescence polarisation direct binding assay, MDM2. Particulars: direct FP binding; 10 nM FITC peptide in Tris buffer pH 7.6; protein serially diluted 10 μM to 9 pM; 3 h, room temperature; quadratic ligand depletion fit; n = 3.
Protocol: The binding properties of the peptides were assessed using a biophysical FP assay. Specifically, a direct binding assay was conducted to calculate the Kd values of the fluorescent peptide ligands binding to the target proteins. Fluorescently labelled peptides were tested for binding to MDM2 (1-138) and MDMX (1-134). […] All FP measurements were performed on a microplate reader (CLARIOstar) in black 384-well microplates with 20 μL of sample solution per well.
was added and serially diluted from 10 μM to 9 pM. Peptide (10 nM in Tris buffer pH 7.6) was then added to all wells and mixed. The sample were left to incubate at room temperature for 3 hours. Plates were placed in a PerkinElmer Victor X5 plate reader with excitation measured at 531 nm and emission measured at 595 nm. The raw data was normalized using baseline correction, where the baseline was defined as the fluorescence polarisation measured in the absence of peptide. Normalised data were then plotted in Prism 7.0 and fitted by using the quadratic ligand depletion model (Equation S3).
Y is the fluorescent polarisation signal measured at each datapoint. […]

Data set [3] is described as follows: Circular dichroism spectroscopy, percentage helicity. Particulars: CD in PBS pH 7.4, room temperature; from MRE at 222 nm, equations of Luo and Baldwin; peptides analysed at 25 μM and 50 μM. The data set is classed as physicochemical. On the procedure:
Following the successful synthesis of the diyne peptide 4, it was important to identify the effect of the modified staple on the α-helical nature of the peptide. The effectiveness of the diyne staple as an α-helical constraint was assessed by CD. Experiments were set out to directly compare the diyne stapled peptide 4 to the alkene stapled peptides (cis-2 and trans-3), with the linear peptide 1 employed as a control. CD was performed at two concentrations to investigate whether peptide concentration influenced helicity, as coiled-coil structures are known to increase helicity.[25] Peptide concentrations were quantified using a NanoDrop™ One Microvolume UV-Vis spectrophotometer using the UV absorption of the peptides at 280 nm.[26] Extinction coefficients of the peptides were calculated from Trp and Tyr residues and the Beer–Lambert law employed to calculate the concentrations.
Each of the peptides (1–4) were analysed at 25 μM and 50 μM in phosphate buffered saline (PBS, pH 7.4) (Fig. 3). CD spectra were measured from 190–260 nm and the characteristic α-helical negative maxima examined for their intensity at 208 nm and 222 nm.[27] […] This is to be expected due to the random coil nature of 1. […] Helicity calculations were performed following conversion of the measured degrees of ellipticity (θ) data to mean residue ellipticity (MRE) (eqn (S1), ESI ^†). […]
Cell Permeability Fluorescence Assay […]

Residues, ends and D or L forms follow the SMILES beside them. *: point of attachment. FITC = O=C1OC2(c3ccc(O)cc3Oc3cc(O)ccc32)c2ccc(NC(=S)*)cc21; Ahx = NCCCCCC(=O)O

One may read the Kd as the equilibrium constant for the complex coming apart. In turn, `CC(C)C[C@H](NC(=O)CCCCCNC(=S)Nc1ccc2c(c1)C(=O)OC21c2ccc(O)cc2Oc2cc(O)ccc21)C(=O)N[C@H](C(=O)N[C@@H](Cc1ccccc1)C(=O)N[C@@H](CCC(=O)O)C(=O)N[C@@H](Cc1c[nH]cn1)C(=O)N[C@@H](Cc1ccc(O)cc1)C(=O)N[C@@H](Cc1c[nH]c2ccccc12)C(=O)N[C@@H](C)C(=O)N[C@@H](CCC(N)=O)C(=O)N[C@@H](CC(C)C)C(=O)N[C@H](C(=O)N[C@@H](CO)C(N)=O)[C@@H](C)O)[C@@H](C)O` [1FITC] ({FITC-Ahx}-LTFEHYWAQLTS-NH2) registered a Kd in data set [1] of 20.1 ± 0.23 nM.

`CC(C)C[C@H](NC(=O)CCCCCNC(=S)Nc1ccc2c(c1)C(=O)OC21c2ccc(O)cc2Oc2cc(O)ccc21)C(=O)N[C@H](C(=O)N[C@@H](Cc1ccccc1)C(=O)N[C@@]1(C)CCCCCC#CC#CCCCCC[C@@](C)(C(=O)N[C@@H](CO)C(=O)N[C@@H](C)C(=O)N[C@@H](C)C(N)=O)NC(=O)[C@H](CC2CCC2)NC(=O)[C@H](CCC(N)=O)NC(=O)[C@H](C)NC(=O)[C@H](Cc2c[nH]c3ccccc23)NC(=O)[C@H](Cc2ccc(O)cc2)NC(=O)[C@H](CCC(=O)O)NC1=O)[C@@H](C)O` [4FITC] displayed a Kd in data set [2] of 1.39 ± 0.08 nM. Molecule “Ac-LTFR8EYWAQ(Cba)S5SAA-NH2 (sidechain bridge or staple) [compound 2, i, i + 7 alkene stapled peptide ATSP-7041 (2/3), cis-isomer, acetylated]” returned a percentage helicity in data set [3] of 48%. The molecule “Ac-LTFS7EYWAQ(Cba)S7SAA-NH2 (sidechain bridge or staple) [compound 4, i, i + 7 diyne-girder stapled peptide analogue of ATSP-7041, acetylated]” showed a percentage helicity in data set [3] of 59%.

The values above are taken from publication PMC11741006, “Raman active diyne-girder conformationally constrained p53 stapled peptides bind to MDM2 for visualisation without fluorophores” (RSC Chemical Biology, 2025).
